The record followed here is patent US11814367B2, “Inhibitors of glycogen synthase 1 (GYS1) and methods of use thereof” (Maze Therapeutics, Inc., priority 2021, dated 2023).

For test [1], the target named is hGYS1 enzyme (recombinant hGYS1/GN1 protein) (Homo sapiens (Human), UniProt P13807). In words: GYS1 coupled enzyme assay (PK/LDH). It is filed as biochemical. The conditions noted are these: hGYS1/GN1 50 nM, UDP-Glucose 0.8 mM, G6P 1 mM; geometric mean of at least 2 runs.
The test system of test [2] is hGYS1 enzyme / glycogen synthesis in HeLa cells. In words: GYS1 cell based assay (glycogen synthesis, Glucose-glo). On the set-up: species or system human. To be noted: Homo sapiens, HeLa, 24 h, 24 h incubation, 20 mM glucose, geometric mean of at least 2 runs. Summed up:
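HeLa cells starved 24 h in medium containing only 1× Glutamax were plated onto compound in medium with 20 mM glucose (1% DMSO final) for 24 h, 37 °C, 5% CO2. Acid lysates were Tris-quenched, glucoamylase-digested (pH 5.3, 1 h, 37 °C) and read by Glucose-glo luminescence. IC50 came from Hill fits, as geometric mean of ≥2 runs.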

For test [3], the target named is hGYS2 enzyme (recombinant hGYS2/GN1 protein) (Homo sapiens (Human), UniProt P54840). Briefly: GYS2 coupled enzyme assay (PK/LDH). It is filed as biochemical. The conditions noted are these: geometric mean of at least 2 assay runs on separate days, read-out: Avg_IC50. In short, it runs like this: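 hGYS2/GN1 200 nM; UDP-Glc 2 mM; glycogen 0.2%; G6P 2 mM; PEP 2 mM, NADH 0.6 mM, PK/LDH 20 U/mL. 50 mM Tris pH 7.5, MgCl2, KCl, BSA, TCEP, 2.5% DMSO. Kinetic A340, 10 min. IC50 = geomean of ≥2 runs.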
hGYS2 enzyme (recombinant hGYS2/GN1 protein), sequence (P54840 whole entry): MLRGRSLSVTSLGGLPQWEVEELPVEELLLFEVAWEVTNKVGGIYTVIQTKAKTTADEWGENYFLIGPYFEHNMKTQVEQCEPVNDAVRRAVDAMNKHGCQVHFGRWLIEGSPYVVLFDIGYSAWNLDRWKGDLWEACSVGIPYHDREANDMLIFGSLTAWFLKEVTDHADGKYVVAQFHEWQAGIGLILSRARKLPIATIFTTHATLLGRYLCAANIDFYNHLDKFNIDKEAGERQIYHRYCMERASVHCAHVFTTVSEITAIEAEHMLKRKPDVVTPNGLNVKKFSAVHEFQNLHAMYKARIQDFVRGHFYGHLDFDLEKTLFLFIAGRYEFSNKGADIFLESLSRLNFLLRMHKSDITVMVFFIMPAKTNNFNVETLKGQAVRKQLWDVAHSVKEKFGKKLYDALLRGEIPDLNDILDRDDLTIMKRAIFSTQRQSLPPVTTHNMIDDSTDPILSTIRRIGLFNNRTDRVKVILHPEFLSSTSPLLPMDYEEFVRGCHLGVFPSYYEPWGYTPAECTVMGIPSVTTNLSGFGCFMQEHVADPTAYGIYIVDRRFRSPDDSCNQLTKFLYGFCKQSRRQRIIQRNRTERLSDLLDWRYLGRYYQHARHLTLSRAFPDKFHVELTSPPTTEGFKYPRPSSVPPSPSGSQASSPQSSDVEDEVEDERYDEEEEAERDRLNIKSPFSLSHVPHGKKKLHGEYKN
hGYS2 enzyme (recombinant hGYS2/GN1 protein), sequence (P46976 whole entry partner): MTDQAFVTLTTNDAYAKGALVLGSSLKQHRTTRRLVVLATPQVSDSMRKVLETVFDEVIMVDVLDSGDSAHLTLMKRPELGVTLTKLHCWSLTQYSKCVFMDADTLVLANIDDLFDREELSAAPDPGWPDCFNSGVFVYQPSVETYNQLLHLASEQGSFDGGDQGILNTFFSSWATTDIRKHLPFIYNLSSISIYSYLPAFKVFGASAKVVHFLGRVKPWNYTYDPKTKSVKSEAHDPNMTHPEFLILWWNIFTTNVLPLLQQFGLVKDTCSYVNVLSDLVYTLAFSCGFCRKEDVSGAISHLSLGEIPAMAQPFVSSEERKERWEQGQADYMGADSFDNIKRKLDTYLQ

hGYS1 enzyme (recombinant hGYS1/GN1 protein), sequence (P13807 whole entry): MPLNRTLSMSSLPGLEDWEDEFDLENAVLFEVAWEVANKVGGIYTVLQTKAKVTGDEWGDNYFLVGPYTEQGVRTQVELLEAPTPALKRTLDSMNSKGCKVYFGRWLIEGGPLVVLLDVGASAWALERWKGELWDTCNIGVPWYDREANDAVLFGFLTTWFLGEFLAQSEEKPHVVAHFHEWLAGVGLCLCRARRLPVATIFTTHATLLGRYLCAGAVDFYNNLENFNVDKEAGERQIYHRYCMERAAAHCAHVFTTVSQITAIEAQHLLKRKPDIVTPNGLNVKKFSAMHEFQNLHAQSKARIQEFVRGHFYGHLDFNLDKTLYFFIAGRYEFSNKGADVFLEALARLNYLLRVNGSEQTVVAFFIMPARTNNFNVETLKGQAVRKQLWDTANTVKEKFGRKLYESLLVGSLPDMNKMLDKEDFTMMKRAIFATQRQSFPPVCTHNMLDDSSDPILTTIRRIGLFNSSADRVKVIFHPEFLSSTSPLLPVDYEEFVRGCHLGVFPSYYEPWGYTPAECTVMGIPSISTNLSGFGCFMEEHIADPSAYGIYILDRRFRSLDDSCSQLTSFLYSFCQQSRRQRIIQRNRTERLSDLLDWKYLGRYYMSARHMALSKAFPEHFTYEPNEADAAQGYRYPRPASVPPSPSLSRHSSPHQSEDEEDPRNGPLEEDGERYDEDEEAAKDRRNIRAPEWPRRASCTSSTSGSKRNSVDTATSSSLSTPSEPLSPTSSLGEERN
hGYS1 enzyme (recombinant hGYS1/GN1 protein), sequence (P46976 whole entry partner): as the sequence (P46976 whole entry partner) above

`CC(=O)N1C[C@H]2CCC[C@@H](C(=O)N3C[C@H](F)C[C@H]3C(=O)N[C@@H](c3ccccc3)c3ccc(C(C)C)cc3)[C@H]2C1` [Compound 183, (2S,4R)-1-[(3aS,4R,7aS)-2-acetyl-octahydro-1H-isoindole-4-carbonyl]-4-fluoro-N-[(S)-phenyl[4-(propan-2-yl)phenyl]methyl]pyrrolidine-2-carboxamide]: the IC50 in test [1] was 41 nM; in test [2] it was 930 nM; in test [3] it was more than 100000 nM.

Take `CC(=O)N1CCC2(CCC(C(=O)N3C[C@H](F)C[C@H]3C(=O)N[C@@H](c3ccccc3)c3ccc(C(C)C)cc3)C2)CC1` (stereo partly drawn) [Compound 184, (2S,4R)-1-{8-acetyl-8-azaspiro[4.5]decane-2-carbonyl}-4-fluoro-N-[(S)-phenyl[4-(propan-2-yl)phenyl]methyl]pyrrolidine-2-carboxamide]: the results for the IC50 in test [1], in test [2] and in test [3] were 75 nM, 3030 nM and more than 100000 nM, respectively.

As to `CC(C)c1ccc([C@@H](NC(=O)[C@@H]2C[C@@H](F)CN2C(=O)CNc2ncco2)c2ccccc2)cc1` [Compound 198, (2S,4R)-4-fluoro-1-{2-[(1,3-oxazol-2-yl)amino]acetyl}-N-[(S)-phenyl[4-(propan-2-yl)phenyl]methyl]pyrrolidine-2-carboxamide], the IC50 in test [1] is 31 nM; in test [2] it was 390 nM; in test [3], more than 100000 nM.

On to `CC(C)c1ccc([C@@H](NC(=O)[C@@H]2C[C@@H](F)CN2C(=O)Cn2cnnc2)c2ccccc2)cc1` [Compound 202, (2S,4R)-4-fluoro-N-[(S)-phenyl[4-(propan-2-yl)phenyl]methyl]-1-[2-(4H-1,2,4-triazol-4-yl)acetyl]pyrrolidine-2-carboxamide], for which the IC50 was 71 nM in test [1], 1860 nM in test [2] and more than 100000 nM in test [3].

Take `CC(C)c1ccc([C@@H](NC(=O)[C@@H]2C[C@@H](F)CN2C(=O)CN2CCOCC2=O)c2ccccc2)cc1` [Compound 219, (2S,4R)-4-fluoro-1-[2-(3-oxomorpholin-4-yl)acethyl]-N-[(S)-phenyl[4-(propan-2-yl)phenyl]methyl]pyrrolidine-2-carboxamide]: the IC50 in test [1] is 101 nM; in test [2], 1410 nM; in test [3], more than 100000 nM.

With `Cc1nn(CC(=O)N2C[C@H](F)C[C@H]2C(=O)N[C@@H](c2ccccc2)c2ccc(C(C)C)cc2)c(=O)o1` [Compound 236, (2S,4R)-4-fluoro-1-[2-(5-methyl-2-oxo-2,3-dihydro-1,3,4-oxadiazol-3-yl)acetyl]-N-[(S)-phenyl[4-(propan-2-yl)phenyl]methyl]pyrrolidine-2-carboxamide], the IC50 in test [1] is 58 nM; in test [2], 810 nM; in test [3], more than 100000 nM.

In the case of `CC(=O)NCc1nnc(CC(=O)N2C[C@H](F)C[C@H]2C(=O)N[C@@H](c2ccccc2)c2ccc(C(C)C)cc2)o1` [Compound 239, (2S,4R)-1-{2-[5-(acetamidomethyl)-1,3,4-oxadiazol-2-yl]acetyl}-4-fluoro-N-[(S)-phenyl[4-(propan-2-yl)phenyl]methyl]pyrrolidine-2-carboxamide], the IC50 in test [1] is 67 nM; in test [2] it was 1560 nM; in test [3], more than 100000 nM.

As to `CC(C)c1ccc([C@@H](NC(=O)[C@@H]2C[C@@H](F)CN2C(=O)Cn2nncc2CN)c2ccccc2)cc1` [Compound 240, (2S,4R)-1-{2-[5-(aminomethyl)-1H-1,2,3-triazol-1-yl]acetyl}-4-fluoro-N-[(S)-phenyl[4-(propan-2-yl)phenyl]methyl]pyrrolidine-2-carboxamide], the values for the IC50 in test [1], in test [2] and in test [3] were 60 nM, 2090 nM and more than 100000 nM, respectively.

On to `CC(C)c1ccc([C@@H](NC(=O)[C@@H]2C[C@@H](F)CN2C(=O)Cn2nncc2CN(C)C)c2ccccc2)cc1` [Compound 241, (2S,4R)-1-(2-{5-[(dimethylamino)methyl]-1H-1,2,3-triazol-1-yl}acetyl)-4-fluoro-N-[(S)-phenyl[4-(propan-2-yl)phenyl]methyl]pyrrolidine-2-carboxamide], for which the results for the IC50 in test [1], in test [2] and in test [3] were 82 nM, 1140 nM and more than 100000 nM, respectively.

Consider `CC(C)c1ccc([C@@H](NC(=O)[C@@H]2C[C@@H](F)CN2C(=O)Cc2nnc(CN(C)C)o2)c2ccccc2)cc1` [Compound 242, (2S,4R)-1-(2-{5-[(dimethylamino)methyl]-1,3,4-oxadiazol-2-yl}acetyl)-4-fluoro-N-[(S)-phenyl[4-(propan-2-yl)phenyl]methyl]pyrrolidine-2-carboxamide], for which the IC50 in test [1] is 79 nM; in test [2], 1140 nM; in test [3], more than 100000 nM.

Regarding `CC(=O)NCc1cnnn1CC(=O)N1C[C@H](F)C[C@H]1C(=O)N[C@@H](c1ccccc1)c1ccc(C(C)C)cc1` [Compound 243, (2S,4R)-1-{2-[5-(acetamidomethyl)-1H-1,2,3-triazol-1-yl]acetyl}-4-fluoro-N-[(S)-phenyl[4-(propan-2-yl)phenyl]methyl]pyrrolidine-2-carboxamide], the values for the IC50 in test [1], in test [2] and in test [3] were 86 nM, 2250 nM and more than 100000 nM, respectively.

`CC(C)c1ccc([C@@H](NC(=O)[C@@H]2C[C@@H](F)CN2C(=O)Cc2cnn[nH]2)c2ccccc2)nc1` [Compound 244, (2S,4R)-1-(2-(1H-1,2,3-triazol-5-yl)acetyl)-4-fluoro-N-((S)-(5-isopropylpyridin-2-yl)(phenyl)methyl)pyrrolidine-2-carboxamide]: the IC50 in test [1] was 77 nM; in test [2] it was 1800 nM; in test [3], more than 100000 nM.

As to `Cc1n[nH]c(C)c1CC(=O)N1C[C@H](F)C[C@H]1C(=O)N[C@@H](c1ccccc1)c1ccc(C(C)C)cn1` [Compound 246, (2S,4R)-1-[2-(3,5-dimethyl-1H-pyrazol-4-yl)acetyl]-4-fluoro-N-[(S)-phenyl[5-(propan-2-yl)pyridin-2-yl]methyl]pyrrolidine-2-carboxamide], the IC50 was 33 nM in test [1], 620 nM in test [2] and more than 100000 nM in test [3].

As to `CC(C)c1ccc([C@@H](NC(=O)[C@@H]2C[C@@H](F)CN2C(=O)Cc2cccc3ncccc23)c2ccccc2)nc1` [Compound 247, (2S,4R)-4-fluoro-N-[(S)-phenyl[5-(propan-2-yl)pyridin-2-yl]methyl]-1-[2-(quinolin-5-yl)acetyl]pyrrolidine-2-carboxamide], the IC50 in test [1] was 10 nM; in test [2], 180 nM; in test [3] it was more than 100000 nM.

Turning to `CC(C)c1ccc([C@@H](NC(=O)[C@@H]2C[C@@H](F)CN2C(=O)Cn2cnc3ccccc32)c2ccccc2)nc1` [Compound 248, (2S,4R)-1-[2-(1H-1,3-benzodiazol-1-yl)acetyl]-4-fluoro-N-[(S)-phenyl[5-(propan-2-yl)pyridin-2-yl]methy]pyrrolidine-2-carboxamide], the figures for the IC50 in test [1], in test [2] and in test [3] were 12 nM, 200 nM and more than 100000 nM, respectively.

As to `Cc1cn(CC(=O)N2C[C@H](F)C[C@H]2C(=O)N[C@@H](c2ccccc2)c2ccc(C(C)C)cn2)c(=O)[nH]c1=O` [Compound 249, (2S,4R)-4-fluoro-1-[2-(5-methyl-2,4-dioxo-1,2,3,4-tetrahydropyrimidin-1-yl)acetyl]-N-[(S)-phenyl[5-(propan-2-yl)pyridin-2-yl]methyl]pyrrolidine-2-carboxamide], the IC50 in test [1] is 21 nM; in test [2], 1150 nM; in test [3], more than 100000 nM.

In the case of `CC(C)c1ccc([C@@H](NC(=O)[C@@H]2C[C@@H](F)CN2C(=O)CNC(=O)N(C)C)c2ccccc2)nc1` [Compound 250, (2S,4R)-1-{2-[(dimethylcarbamoyl)amino]acetyl}-4-fluoro-N-[(S)-phenyl[5-(propan-2-yl)pyridin-2-yl]methyl]pyrrolidine-2-carboxamide], the IC50 in test [1] is 43 nM; in test [2], 1270 nM; in test [3] it was more than 100000 nM.

Regarding `CC(C)c1ccc([C@@H](NC(=O)[C@@H]2C[C@@H](F)CN2C(=O)Cn2cnnn2)c2ccccc2)nc1` [Compound 252, (2S,4R)-4-fluoro-N-[(S)-phenyl[5-(propan-2-yl)pyridin-2-yl]methyl}-1-[2-(1H-1,2,3-tetrazol-1-yl)acetyl]pyrrolidine-2-carboxamide], the IC50 in test [1] is 186 nM; in test [2], 2480 nM; in test [3], more than 100000 nM.

For the compound `CC(C)c1ccc([C@@H](NC(=O)[C@@H]2C[C@@H](F)CN2C(=O)Cc2nnc(C(F)F)o2)c2ccccc2)nc1` [Compound 253, (2S,4R)-1-{2-[5-(difluoromethyl)-1,3,4-oxadiazol-2-yl]acetyl}-4-flouro-N-[(S)-phenyl[5-(propan-2-yl)pyridin-2-yl]methyl]pyrrolidine-2-carboxamide], the results for the IC50 in test [1], in test [2] and in test [3] were 67 nM, 1090 nM and more than 100000 nM, respectively.

With `CC(C)c1ccc([C@@H](NC(=O)[C@@H]2C[C@@H](F)CN2C(=O)Cn2nnnc2C(F)F)c2ccccc2)nc1` [Compound 254, (2S,4R)-1-{2-[5-(difluoromethyl)-1H-1,2,3-tetrazol-1-yl]acetyl}-4-fluoro-N-[(S)-phenyl[5-(propan-2-yl)pyridin-2-yl]methyl]pyrrolidine-2-carboxamide], the IC50 was 75 nM in test [1], 1230 nM in test [2] and more than 100000 nM in test [3].
